This note sets out measurements from patent US20250136722A1, “CYTOTOXICITY TARGETING CHIMERAS” (GLAXOSMITHKLINE INTELLECTUAL PROPERTY DEVELOPMENT LIMITED, priority 2021, published 2025).

“And” between values parts separate entries of the source, which are not always exact repeats. Equal entries are not always repeated.

The target of test [1] is T1, CHOK1 cells engineered to overexpress human CCR2 (Homo sapiens, UniProt P41597).
T1 construct: expressed in transfected cells; host or cells: CHOK1 cells
Briefly: Antibody dependent cellular cytotoxicity (ADCC) reporter assay (Example 199). Format: cell-based. The settings on record: with anti-cotinine antibody SEQ ID NO: 11/12; CHOK1-human CCR2 target cells, Jurkat FcγRIIIa NFAT-luciferase reporter cells; 12-18 hours; read-out: ADCC Reporter Assay pEC50 (converted). The essentials: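 Potency is reported as pEC50 from a nonlinear fit, averaged over runs, using luciferase signal divided by that of compound-free wells. The readout comes from NFAT-luciferase Jurkat cells expressing FcγRIIIa, mixed for 12–18 h with human CCR2-overexpressing CHOK1 cells, 1 pM–10 μM ARM compound and 0.01–200 μg/mL Fc-enhanced anti-cotinine IgG1.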

The target in test [2] is Anti-cotinine antibody (SEQ ID NO: 11 / SEQ ID NO: 12, rabbit variable region with human IgG1 Fc domain). In words: Binding of anti-cotinine antibody to ARM compounds by SPR, Biacore T200, 37° C. (Example 202). The note with it: pH 7.4, rabbit variable region/human IgG1 Fc antibody captured on protein A. The essentials:
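Run at 37° C. in 10 mM HEPES pH 7.4, 150 mM NaCl, 0.005% P20, 1% DMSO. Compound titrated from 200 nM (five 3-fold steps) over protein A-captured antibody, with 200/2000 s association/dissociation. 1:1 kinetic fit gave kon, koff, Kd and residence time (1/koff); pKd averaged where runs repeated.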
On the technique in general: SPR reads the build-up and loss of mass on a sensor chip optically.

The target in test [3] is human alpha1 nicotinic acetylcholine (nACh) receptor (Homo sapiens, UniProt P02708+Q07001). In words: Nicotinic acetylcholine receptor antagonism assay, IONFlux automated patch clamp (Example 203). Format: cell-based. The settings on record: for Emax at 100 µM: maximum percentage antagonism at maximum concentration tested 100 μM; for IC50: nAChR antagonism, ACh stimulated, patch clamp. A digest of the protocol:
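Human α1 nAChR-expressing cells were preincubated with compound (top 10 μM or 100 μM), then stimulated with 10 mM ACh; peak currents were recorded by IONFlux automated patch clamp. Percent inhibition versus ACh-alone control was vehicle- and rundown-corrected, then fitted to give IC50, with maximal antagonism at the top concentration; recordings with control current <500 pA were excluded.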

In test [4] the test system is endogenous target monocytes in human PBMC. Briefly: PBMC ex vivo monocyte depletion flow cytometry assay (Example 200). The settings on record: with anti-cotinine antibody SEQ ID NO: 11/12, 18-24 hours, read-out: Ex Vivo Depletion Assay pEC50 (converted). Type of test: cell-based. The method, then: A human PBMC (peripheral blood mononuclear cells) monocyte depletion flow cytometry assay was developed to screen compounds in a 384-well plate format. This assay incorporated endogenous natural killer cells to deplete endogenous target monocytes.
To screen compounds in the human PBMC monocyte depletion flow cytometry assay, 11-point dose-response curves were made from 1 mM stocks in neat DMSO by serially diluting an ARM compound of Formula (I) four-fold into a 384-well plate row-wise. These serially diluted compounds were then stamped into a flat bottom polypropylene 384-well plate (Greiner Bio-One) at 100 nL/well. Fifty microliters of 30 μg/mL anti-cotinine antibody having a heavy chain sequence of SEQ ID NO: 11 and a light chain sequence of SEQ ID NO: 12 (rabbit variable region with human IgG1 Fc domain containing a DE mutation (S239D/1332E)) that had been diluted in assay medium (RPMI 1640 (Gibco) containing 10% fetal bovine serum (Gibco), 1% Glutamax (Gibco) and 1% sodium pyruvate (Corning) was added to the wells of the plate. The plate was centrifuged for 1 min at 500 rpm (revolutions per minute) and then shaken for 5 min at room temperature. The plate was incubated for 15 minutes at 37° C./5% CO2.
Frozen PBMC cells (HemaCare BioResearch) were thawed and centrifuged at 1,200 rpm for 4 minutes. The cells were diluted to a cell density of 2×10^6 cells/mL in assay medium. Fifty microliters of the diluted cells were added to the wells of the plate. The plate was centrifuged for 1 min at 500 rpm and incubated for 18-24 hours at 37° C./5% CO2.
After 18-24 hours incubation, 2 μL of 6.25 μg human FC block (BD Pharmingen) that was diluted in assay medium was added to the wells of the plate. The plate was centrifuged for 1 minute at 500 rpm and then incubated at room temperature for 15 minutes. Five microliters of 750 nM Helix NP NIR (Biolegend) that had been diluted in assay medium was added to the wells of the plate. Nine microliters of antibody cocktail containing 1/5 diluted fluorescein isothiocyanate (FITC) labeled anti-CD45 antibody (Beckman Coulter), PC7 labeled anti-CD14 antibody (Beckman Coulter) and phycoerythrin (PE) anti-CD4 antibody (Beckman Coulter) was then added to the wells of the plate. The plate was centrifuged for 1 min at 500 rpm and incubated for 30 minutes at 4-8° C. Samples from the plate were run on BD FACS Canto II flow cytometer and data was analyzed using FlowJo software.
ARMs compounds of Formula (I) of the invention were tested for the ability to deplete monocytes in the above assay in one or more experimental runs and the results are shown in Table 3 below. Potency of the compounds of the invention is reported as a pEC50 value. The pEC50 value is the negative log of the EC50 value, wherein the EC50 value is the half maximal effective concentration measured in molar (M). For compounds tested in more than one experimental run, the pEC50 value is reported as an average or as the individual values measured
(In general: A flow cytometer gives signals particle by particle.)

human alpha1 nicotinic acetylcholine (nACh) receptor, sequence (P02708 21-457): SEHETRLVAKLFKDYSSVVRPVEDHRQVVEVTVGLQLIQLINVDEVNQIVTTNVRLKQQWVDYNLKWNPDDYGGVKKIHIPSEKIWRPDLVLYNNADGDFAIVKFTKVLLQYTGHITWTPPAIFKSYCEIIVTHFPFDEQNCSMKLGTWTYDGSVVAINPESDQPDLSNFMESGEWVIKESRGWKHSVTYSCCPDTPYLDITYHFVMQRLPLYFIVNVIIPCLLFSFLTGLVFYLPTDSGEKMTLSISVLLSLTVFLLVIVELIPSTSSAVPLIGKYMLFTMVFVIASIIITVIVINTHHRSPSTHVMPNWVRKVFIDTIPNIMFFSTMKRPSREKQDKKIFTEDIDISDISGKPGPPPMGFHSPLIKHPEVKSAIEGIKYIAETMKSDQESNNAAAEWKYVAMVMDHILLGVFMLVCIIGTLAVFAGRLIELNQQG
human alpha1 nicotinic acetylcholine (nACh) receptor, sequence (P11230 24-501 partner): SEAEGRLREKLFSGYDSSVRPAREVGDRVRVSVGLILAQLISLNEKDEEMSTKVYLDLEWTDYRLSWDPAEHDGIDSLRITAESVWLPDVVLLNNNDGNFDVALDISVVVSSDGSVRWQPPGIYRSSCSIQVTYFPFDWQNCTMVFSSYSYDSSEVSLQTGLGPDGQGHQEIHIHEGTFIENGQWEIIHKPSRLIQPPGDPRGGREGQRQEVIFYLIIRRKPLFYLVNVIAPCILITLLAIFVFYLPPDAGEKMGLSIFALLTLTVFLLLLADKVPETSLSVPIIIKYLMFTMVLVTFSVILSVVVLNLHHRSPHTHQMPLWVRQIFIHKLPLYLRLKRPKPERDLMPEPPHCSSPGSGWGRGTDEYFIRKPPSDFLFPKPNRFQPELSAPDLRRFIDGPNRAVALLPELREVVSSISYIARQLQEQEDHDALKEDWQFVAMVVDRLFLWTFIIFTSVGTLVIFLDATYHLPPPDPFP
human alpha1 nicotinic acetylcholine (nACh) receptor, sequence (Q07001 22-517): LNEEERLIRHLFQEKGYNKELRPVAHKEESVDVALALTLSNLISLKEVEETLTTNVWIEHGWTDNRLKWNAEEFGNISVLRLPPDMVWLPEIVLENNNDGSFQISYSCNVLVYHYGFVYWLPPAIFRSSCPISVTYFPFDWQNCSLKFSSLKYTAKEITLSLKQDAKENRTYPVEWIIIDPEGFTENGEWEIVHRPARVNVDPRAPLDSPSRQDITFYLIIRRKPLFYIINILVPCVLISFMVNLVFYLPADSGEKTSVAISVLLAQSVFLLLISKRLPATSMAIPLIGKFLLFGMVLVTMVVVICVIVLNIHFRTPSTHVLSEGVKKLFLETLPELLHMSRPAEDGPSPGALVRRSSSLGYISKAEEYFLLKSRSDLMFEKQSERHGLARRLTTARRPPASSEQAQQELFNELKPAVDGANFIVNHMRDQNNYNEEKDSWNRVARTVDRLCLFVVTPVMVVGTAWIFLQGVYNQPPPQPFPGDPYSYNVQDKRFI

Take `CC(C)N(C)[C@@H]1CC[C@H](N2CC[C@H](Nc3ncnc4ccc(C(F)(F)F)cc34)C2=O)[C@H](NC(=O)CCOCCC(=O)N[C@H]2C[C@@H](C(=O)NCCOCCNC(=O)[C@H]3CC(=O)N(C)[C@@H]3c3cccnc3)C2)C1` [Example 186, (2S,3S)-N-(2-(2-((1S,3R)-3-(3-(3-(((1R,2S,5R)-5-(Isopropyl(methyl)amino)-2-((S)-2-oxo-3-((6-(trifluoromethyl)quinazolin-4-yl)amino)pyrrolidin-1-yl)cyclohexyl)amino)-3-oxopropoxy)propanamido)cyclobutane-1-carboxamido)ethoxy)ethyl)-1-methyl-5-oxo-2-(pyridin-3-yl)pyrrolidine-3-carboxamide]: the EC50 in test [1] was 0.151 nM. In addition, the “pKd of Antibody for ARM Compound of Formula (I)” value (from here on “pKd of Antibody”) in test [2] was determined as 9.1435. The Emax at 100 µM in test [3] (read-out: Maximum Response (%)) was found to be 55.2%. In addition, the half-inhibitory concentration (IC50) in test [3] stood at 31.8 µM.

Take `CC(C)N(C)[C@@H]1CC[C@H](N2CC[C@H](Nc3ncnc4ccc(C(F)(F)F)cc34)C2=O)[C@H](NC(=O)[C@H]2CC[C@@H](NC(=O)CCCO[C@H]3CC[C@H](NC(=O)CCNC(=O)[C@@H]4CC(=O)N(C)[C@H]4c4cccnc4)CC3)CC2)C1` [Example 52, (2S,3S)-N-(3-(((1R,4S)-4-(4-(((1S,4S)-4-(((1R,2S,5R)-5-(Isopropyl(methyl)amino)-2-((S)-2-oxo-3-((6-(trifluoromethyl)quinazolin-4-yl)amino)pyrrolidin-1-yl)cyclohexyl)carbamoyl)cyclohexyl)amino)-4-oxobutoxy)cyclohexyl)amino)-3-oxopropyl)-1-methyl-5-oxo-2-(pyridin-3-yl)pyrrolidine-3-carboxamide]: in test [1], the EC50 was 0.222 nM and 0.294 nM. Moreover, the “pKd of Antibody” value in test [2] came out at 9.2545. In addition, the Emax at 33.33 µM in test [3] (maximum percentage antagonism at maximum concentration tested 33.33 μM, read-out: Maximum Response (%)) was determined as 8.3%. The IC50 in test [3] is > 33.3 µM.

For `CC(C)N(CCOCCOCCC(=O)N[C@H]1CC[C@@H](C(=O)N[C@@H]2C[C@H](N(C)C(C)C)CC[C@@H]2N2CC[C@H](Nc3ncnc4ccc(C(F)(F)F)cc34)C2=O)CC1)C(=O)CCNC(=O)[C@H]1CC(=O)N(C)[C@@H]1c1ccccc1` [Example 178], the EC50 in test [4] is 0.398 nM.

Consider `CC(C)N(C)[C@@H]1CC[C@H](N2CC[C@H](Nc3ncnc4ccc(C(F)(F)F)cc34)C2=O)[C@H](NC(=O)[C@H]2CC[C@@H](NC(=O)COCCNC(=O)COCCNC(=O)[C@H]3CC(=O)N(C)[C@@H]3c3cccnc3)CC2)C1` [Example 99], for which the EC50 in test [1] was 1.99 nM. The “pKd of Antibody” value in test [2] turned out to be 9.062. For the same molecule, in test [3] (read-out: Maximum Response (%)), the Emax at 100 µM worked out at 71.1%. Moreover, in test [3], inhibition was half-maximal at 33.1 µM (IC50).

For the molecule `CC(C)N(C)[C@@H]1CC[C@H](N2CC[C@H](Nc3ncnc4ccc(C(F)(F)F)cc34)C2=O)[C@H](NC(=O)COCCOCCNC(=O)CCOCCOCCNC(=O)[C@H]2CC(=O)N(C)[C@@H]2c2cccnc2)C1` [Example 77], the EC50 in test [1] is 5.52 nM. Further, in test [2], the “pKd of Antibody” value is 9.152. Also, in test [3] (maximum percentage antagonism at maximum concentration tested 10 μM, read-out: Maximum Response (%)), the Emax at 10 µM is 19.6%. The concentration for half-maximal inhibition (IC50) in test [3] is > 10 µM.

With `CC(C)N(C)[C@@H]1CC[C@H](N2CC[C@H](Nc3ncnc4ccc(C(F)(F)F)cc34)C2=O)[C@H](NC(=O)[C@H]2CC[C@@H](NC(=O)CCCC(=O)NCCCOCCCNC(=O)[C@H]3CC(=O)N(C)[C@@H]3c3cccnc3)CC2)C1` [Example 18, N^1-((1S,4s)-4-(((1R,2S,5R)-5-(Isopropyl(methyl)amino)-2-((S)-2-oxo-3-((6-(trifluoromethyl)quinazolin-4-yl)amino)pyrrolidin-1-yl)cyclohexyl)carbamoyl)cyclohexyl)-N^5-(3-(3-((2S,3S)-1-methyl-5-oxo-2-(pyridin-3-yl)pyrrolidine-3-carboxamido)propoxy)propyl)glutaramide], in test [1], the EC50 was 0.675 nM and 0.132 nM. The “pKd of Antibody” value in test [2] is recorded as 9.0895. In addition, the Emax at 100 µM in test [3] (read-out: Maximum Response (%)) stood at 44.9%. In addition, the IC50 in test [3] is > 100 µM.

In the case of `CC(C)N(C)[C@@H]1CC[C@H](N2CC[C@H](Nc3ncnc4ccc(C(F)(F)F)cc34)C2=O)[C@H](NC(=O)[C@H]2C[C@@H](NC(=O)CCOCCOCCNC(=O)CCNC(=O)[C@H]3CC(=O)N(C)[C@@H]3c3cccnc3)C2)C1` [Example 49, (2S,3S)-N-(3-((2-(2-(3-(((1S,3s)-3-(((1R,2S,5R)-5-(Isopropyl(methyl)amino)-2-((S)-2-oxo-3-((6-(trifluoromethyl)quinazolin-4-yl)amino)pyrrolidin-1-yl)cyclohexyl)carbamoyl)cyclobutyl)amino)-3-oxopropoxy)ethoxy)ethyl)amino)-3-oxopropyl)-1-methyl-5-oxo-2-(pyridin-3-yl)pyrrolidine-3-carboxamide], the EC50 in test [1] was 0.845 nM and 0.303 nM. The “pKd of Antibody” value in test [2] is given as 9.191. In addition, the Emax at 100 µM in test [3] (read-out: Maximum Response (%)) was found to be 56.7%. Besides, the IC50 in test [3] was 80.3 µM.

As for `CC(C)N(C)[C@@H]1CC[C@H](N2CC[C@H](Nc3ncnc4ccc(C(F)(F)F)cc34)C2=O)[C@H](NC(=O)CCOCCNC(=O)CCCO[C@H]2CC[C@H](OCCNC(=O)[C@H]3CC(=O)N(C)[C@@H]3c3cccnc3)CC2)C1` [Example 7], the EC50 in test [1] was 0.182 nM. Moreover, the “pKd of Antibody” value in test [2] was found to be 9.2515. The Emax at 100 µM in test [3] (read-out: Maximum Response (%)) is 95%. Moreover, in test [3], the midpoint of inhibition, the IC50, lay at 13.7 µM.

Turning to `CC(C)N(C)[C@@H]1CC[C@H](N2CC[C@H](Nc3ncnc4ccc(C(F)(F)F)cc34)C2=O)[C@H](NC(=O)[C@H]2CC[C@H](NC(=O)CCCC(=O)NCCCOCCCNC(=O)[C@H]3CC(=O)N(C)[C@@H]3c3cccnc3)CC2)C1` [Example 19], the EC50 in test [1] was 4.9 nM. For the same molecule, the “pKd of Antibody” value in test [2] is listed as 9.19. The Emax at 100 µM in test [3] (read-out: Maximum Response (%)) stood at 34.2%. The IC50 in test [3] is > 100 µM.

For the molecule `CCN1C(=O)C[C@H](C(=O)NCCOCCOCCOCCC(=O)N[C@H]2CC[C@@H](C(=O)N[C@@H]3C[C@H](NC(C)(C)C)CC[C@@H]3N3CC[C@H](Nc4ncnc5ccc(C(F)(F)F)cc45)C3=O)CC2)[C@H]1c1cccnc1` [Example 35], in test [1], the EC50 is 2.51 nM. The “pKd of Antibody” value in test [2] is reported as 9.785. Moreover, the Emax at 100 µM in test [3] (read-out: Maximum Response (%)) turned out to be 52.3%. The 50% inhibitory concentration (IC50) in test [3] was 89.2 µM.

In the case of `CC(C)N(C)[C@@H]1CC[C@H](N2CC[C@H](Nc3ncnc4ccc(C(F)(F)F)cc34)C2=O)[C@H](NC(=O)CCOCCOCCNC(=O)CCOCCOCCNC(=O)[C@H]2CC(=O)N(C)[C@@H]2c2cccnc2)C1` [Example 76], the EC50 in test [1] is 2.51 nM. Also, the “pKd of Antibody” value in test [2] is 9.1155. The Emax at 100 µM in test [3] (read-out: Maximum Response (%)) was 67.7%. The molecule also had an IC50 in test [3] of 32.4 µM.

Turning to `CC(C)N(C)[C@@H]1CC[C@H](N2CC[C@H](Nc3ncnc4ccc(C(F)(F)F)cc34)C2=O)[C@H](NC(=O)[C@H]2C[C@@H](NC(=O)CCOCCOCCOCCNC(=O)[C@H]3CC(=O)N(C)[C@@H]3c3cccnc3)C2)C1` [Example 24], in test [1], the EC50 is 1.46 nM and 0.358 nM. Besides, the “pKd of Antibody” value in test [2] stood at 9.4425. Also, the Emax at 100 µM in test [3] (read-out: Maximum Response (%)) was 59.5%. In addition, in test [3], the IC50 was found to be 85.3 µM.

The IC50 is the concentration that inhibits the measured activity by half. A low value points to greater potency.
